In PMC6130578, “Isolation and identification of three new chromones from the leaves of Pimenta dioica with cytotoxic, oestrogenic and anti-oestrogenic effects” (Pharmaceutical Biology, 2018):

How the values were obtained:
[1] = system: oestrogen responsive SEAP reporter gene (ERE) in MCF-7 cells; test: Oestrogen-responsive SEAP reporter gene assay in transfected MCF-7 cells; assay type: cell-based, human; conditions: for SEAP activity in combination with E2: 1 μM compound + 10 nM E2; for fold increase in SEAP expression / SEAP reporter gene expression/activity, compound alone: 1 μM; for fold increase in SEAP expression: compound alone; for SEAP reporter gene expression/activity, compound alone: vs. control
Procedure: In addition to the ERβ binding assay, oestrogenic activity was determined by an oestrogen-responsive reporter gene assay consisting of MCF-7 cells transfected with a construct containing a secreted alkaline phosphatase (SEAP) gene that is induced through an oestrogen response element (ERE). MCF-7 (HTB-22) human breast cancer cells (obtained from American Type Culture Collection, Manassas, VA) were maintained in Dulbecco’s modified Eagle’s medium containing 10% FBS and 100 U/mL penicillin and 100 μg/mL streptomycin in 75 cm^2 flasks. Forty-eight hours prior to transfection, the cells were maintained in phenol red free DMEM medium supplemented with 0.5% FCS, in a humidified atmosphere with 5% CO2 at 37 °C. For transfection, 0.5 × 10^5 cells were seeded per well of a 96-well plate in OPTI-MEM supplemented with dextran-charcoal stripped FBS. After 4 h, serum concentration was reduced to 1%. Prior to transfection, cells were washed with DMEM and incubated in phenol red-free OPTI-MEM without FBS as described by Nozawa et al. ([2005]).
The cells were transfected with the reporter vector pERE-TA-SEAP, coding for the SEAP gene (Clontech, Palo Alto, CA) (Cullen and Malim [1992]; Treeck et al. [2003]). MCF-7 cells were transfected using 0.5 μL Lipofectamine 2000 (Invitrogen, Carlsbad, CA), and 0.1 μg plasmid DNA including the SEAP vector per well of a 96-well plate according to the manufacturer’s instructions. As a negative control, cells were transfected with reporter vector pTA-SEAP2 using Lipofectamine 2000. After 12 h of transfection, the media were replaced with phenol-free Dulbecco’s modified Eagle’s medium containing 10% dextran-coated charcoal stripped FBS. Cells were treated with 1 μM 1–3 with and without 10 nM E2 or 1 μM ICI 182,780. Estradiol was used as the positive control and DMSO as the negative control. Cells were treated for 12 h, then the medium was harvested, centrifuged and 25 μL from each well was transferred to a new 96 well plate. The SEAP activity was measured using the Great EscAPe SEAP Chemiluminescence High-Throughput Detection Kit (Clontech, Palo Alto, CA) using a 96-well luminometer according to the manufacturer’s instructions. To assess novel mechanisms of action other than ER, we tested the extract and fractions in a HER2/neu tyrosine kinase assays (Barbacci et al. [2003]; HTScan HER2/ErbB2 kinase Assay Kit, Cell Signaling Tech., 96-well plates, high throughput), using the methods as described by the manufacturer.

full-length ERβ = target: T1, full-length ERβ (Homo sapiens, UniProt Q92731); test: Competitive radioligand oestrogen receptor binding assay (3H-estradiol); conditions: 0.5 nM 3H-estradiol; tested at 20–100 μg/mL
T1 construct: host or cells: Sf9 insect cells
T1 sequence (Q92731 whole entry): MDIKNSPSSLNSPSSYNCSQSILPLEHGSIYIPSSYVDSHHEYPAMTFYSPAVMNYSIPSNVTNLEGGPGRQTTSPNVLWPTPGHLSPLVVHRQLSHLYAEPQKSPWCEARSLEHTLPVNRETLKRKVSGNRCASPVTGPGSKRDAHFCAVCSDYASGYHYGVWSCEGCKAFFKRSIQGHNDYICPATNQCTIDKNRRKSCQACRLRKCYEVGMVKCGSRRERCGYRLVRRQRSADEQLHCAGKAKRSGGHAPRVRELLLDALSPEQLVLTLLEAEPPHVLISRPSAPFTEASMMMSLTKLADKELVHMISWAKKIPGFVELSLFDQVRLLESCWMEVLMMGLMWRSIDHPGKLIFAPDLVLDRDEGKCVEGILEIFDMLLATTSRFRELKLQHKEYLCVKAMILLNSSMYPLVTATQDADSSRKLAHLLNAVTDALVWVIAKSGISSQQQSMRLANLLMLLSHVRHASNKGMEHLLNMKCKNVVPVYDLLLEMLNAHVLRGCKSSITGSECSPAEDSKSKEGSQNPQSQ
Procedure: A competitive radioligand-binding assay using full-length ERβ was used in the bioassay-guided fractionation of the crude methanol extract. The assay was performed as previously described (Obourn et al. [1993]; Doyle et al. [2009]). Briefly, recombinant human oestrogen receptor from insect Sf9 cells (α or β) was incubated with the test sample (50 μg/mL) plus 0.5 nM 3H-estradiol at 4 °C overnight. At the completion of incubation, 100 μL of a 50% hydroxylapatite slurry (in […] Tris, pH 7.4, 1 mM EDTA, 1 mM EGTA) was added and allowed to bind the ER-ligand complex for 40 min. The hydroxylapatite was washed three times with 0.5 mL of 40 mM Tris, pH 7.4, 1 mM EDTA, 1 mM EGTA and 11 mM KCl. The hydroxylapatite pellets were suspended in 1 mL of ethanol and counted in 5 mL of scintillation fluid, and the receptor-bound 3H-estradiol was measured. […] The median inhibitory concentration of 1 was determined by testing at concentrations of 20–100 μg/mL. All tests were performed in triplicate, and the results were determined from three independent experiments.

NCI-N87 cells = test: Cell viability assay (CellTiter-Glo 2.0), NCI-N87; assay type: cell-based; conditions: Homo sapiens, NCI-N87, 72 h; read-out: IC50 (cell growth)
Procedure: (§1) MCF-7 and AGS cells were seeded at 2.5 × 10^4 cells in 100 µL/well while NCI-N87 was seeded at 5.0 × 10^4 cells in 100 µL/well in opaque-walled 96-well plate. Control wells containing medium (supplemented with 10% FBS and 1% penicillin/streptomycin) without cells to determine background luminescence were also prepared. The cells were left to attach overnight in the plate. Culture medium was aspirated and fresh medium added to the wells before reconstituted extracts of P. dioica (methanol extract, 50% methanol fraction) and isolated compounds (1–3, and quercitrin) at 100, 50, 20, 10 and 5 µg/mL were added to experimental wells. Drug controls (5-fluorouracil and doxorubicin) and vehicle control (0.02% DMSO) wells were also prepared simultaneously, and the plate was incubated in a humidified incubator at 37 °C in an atmosphere of 5% CO2 for 72 h. At the end of the incubation period, the plate and its contents were equilibrated to room temperature for approximately 30 min. A 100 µL volume of CellTiter-Glo 2.0 Reagent (Promega Corporation, Madison, WI) was added to each well. The contents were mixed for 2 min on an orbital shaker to induce cell lysis and the plate was incubated at room temperature for 10 min to stabilize the luminescent signal. Luminescence signal was read using the Synergy HT Plate reader (Biotek, Winooski, VT) and Gen5 1.11 software. The IC50 defined as the concentration that causes 50% inhibition of cell growth after exposure to extract for 72 h was calculated using log (inhibitor) vs. normalized response analysis with GraphPad Prism 7 (GraphPad Software, Inc., La Jolla, CA).

MCF-7 cells [2] = test: Cell viability assay (CellTiter-Glo 2.0), MCF-7; assay type: cell-based; conditions: Homo sapiens, MCF7; MCF-7, 72 h; read-out: IC50 (cell growth)
Procedure: as §1

AGS cells = test: Cell viability assay (CellTiter-Glo 2.0), AGS; assay type: cell-based; conditions: Homo sapiens, 72 h, read-out: IC50 (cell growth)
Procedure: as §1

MCF-7 cells [3] = test: ApoTox-Glo triplex assay (viability, cytotoxicity, caspase 3/7) in MCF-7 cells; assay type: cell-based, human; conditions: MCF-7, 55 µg/mL
Procedure: Ninety-six (96) well assay plates containing MCF-7 cells in medium at a density of 1.0 × 10^4 cells in 100 µL/well in triplicate were set up. […] Plates were incubated appropriately before addition of 20 μL of viability/cytotoxicity reagent containing both GF-AFC substrate and bis-AAF-R110 substrate to all wells and briefly mixed by orbital shaking (300–500 rpm for ∼30 s). Plates were incubated for 30 min at 37 °C and fluorescence was measured at 400ex/505em (viability) and 485ex/520em (cytotoxicity). A 100 μL volume of Caspase-Glo® 3/7 reagent was added to all wells, briefly mixed by orbital shaking (300–500 rpm for ∼30 s), and incubated for 30 min at room temperature. Luminescence was measured using the Synergy HT Plate reader (Biotek, Winooski, VT) and Gen 5 1.11 software to detect caspase activation.

[4] = system: Bcl-2 and Bax mRNA in MCF-7 cells; test: qPCR for apoptotic gene expression in MCF-7 cells; assay type: cell-based, human; conditions: MCF-7, at the IC50, 24 h
Procedure: MCF-7 cells were seeded at a density of 1 × 10^6 cells per well in a six-well plate and incubated overnight for cell attachment. […] Vehicle-treated control cells served as the negative control. The concentration and quality of RNA were determined by measuring absorbance at 260 nm and 280 nm on SynergyHT Take 3 session (Biotek, Winooski, VT) and Gen5 1.11 software.
Total RNA was reverse transcribed and amplified using Power SYBR Green RNA-to-CT 1-step kit (Applied Biosystems, Foster City, CA) as described by manufacturer using a Step-One Plus Real Time PCR System (Applied Biosystem, Foster City, CA). Briefly, each reaction was performed in triplicate in a 10 μL volume containing Power SYBR Green RT-PCR Mix (2×), 200 nM of each primers, RT Enzyme Mix (125×) and 100 ng RNA. The cycling conditions were as follows: 48 °C for 30 min, 95 °C for 10 min, followed by 50 cycles of 95 °C for 15 s and 60 °C for 1 min. PCR reaction specificity was confirmed by melt curve analysis at 95 °C for 15 s, 60 °C for 15 s, 95 °C for 15 s. The quantitation of gene expression was performed using β-actin as an endogenous control and relative to the calibrator (control cells) using the ΔΔCt method. Melting curves for each primer set were performed prior to the use of the primers.

caspase 8 in MCF-7 cells = test: Caspase-Glo 8 apoptosis assay in MCF-7 cells; assay type: cell-based, human; conditions: compound 2 at IC50 concentration (55 µg/mL), 2 h
Procedure: MCF-7 cells were seeded in triplicate at a density of 3.0 × 10^4 cells in 100 µL/well in opaque-walled 96-well plates. The cells were left to attach overnight in the plate. Compound 2 at 55 µg/mL was added to the test wells. Caspase-Glo® 8 Reagents (Promega Corporation, Madison, WI) were prepared according to manufacturer’s instruction and allowed to equilibrate to room temperature. The test plates containing treated cells as well as controls were removed from the incubator after 2 h of incubation and allowed to equilibrate to room temperature. A 100 μL volume of Caspase-Glo® 8 Reagent was added to each well of a 96-well plate containing 100 μL of cell culture medium (blank), non-treated cells (negative control) in culture medium, and treated cells in culture medium. The contents of wells were gently mixed using a plate shaker at 300–500 rpm for 30 s and incubated at room temperature for 1 h. The luminescence of each sample was read using the Synergy HT Plate reader (Biotek, Winooski, VT) and Gen5 1.11 software.

IC50 (full-length ERβ)	IC50 (MCF-7 cells [2])	IC50 (AGS cells)	Structure (SMILES)	SEAP activity in combination with E2 [1]	SEAP expression in the presence of ICI 182,780 ([1]; 1 μM compound + 1 μM ICI 182,780)	fold increase in SEAP expression [1]	SEAP reporter gene expression/activity, compound alone [1]	IC50 (NCI-N87 cells)	apoptosis in MCF-7 cells (MCF-7 cells [3])	Bax mRNA expression [4]	Bax/Bcl-2 ratio [4]	Bcl-2 mRNA expression [4]	caspase 8 activity (caspase 8 in MCF-7 cells)
	1.37 µg/mL	18.6 µg/mL	O=c1[nH]cc(F)c(=O)[nH]1 [Compound 5FU, 5-fluorouracil, reference compound]					0.097 µg/mL					
	54.3 µg/mL	38.1 µg/mL	Cc1c(O)c(C)c2oc(-c3ccc(OC4OC(CO)C(O)C(O)C4O)cc3)cc(=O)c2c1O (stereo not shown) [Compound 2, syzalterin-4′-O-glucopyranose]			6.0 fold	significantly increased SEAP activity	51.2 µg/mL	induced apoptosis	little effects	~3.5	decreased	weakly enhanced
		0.079 µg/mL	COc1cccc2c1C(=O)c1c(O)c3c(c(O)c1C2=O)C[C@@](O)(C(=O)CO)C[C@@H]3O[C@H]1C[C@H](N)[C@H](O)[C@H](C)O1 [Doxo, doxorubicin, reference compound]					0.048 µg/mL					

Continued, compound first:

Structure (SMILES)	IC50 (full-length ERβ)	IC50 (MCF-7 cells [2])	IC50 (AGS cells)	SEAP activity in combination with E2 [1]	SEAP expression in the presence of ICI 182,780 ([1]; 1 μM compound + 1 μM ICI 182,780)	fold increase in SEAP expression [1]	SEAP reporter gene expression/activity, compound alone [1]	IC50 (NCI-N87 cells)	apoptosis in MCF-7 cells (MCF-7 cells [3])	Bax mRNA expression [4]	Bax/Bcl-2 ratio [4]	Bcl-2 mRNA expression [4]	caspase 8 activity (caspase 8 in MCF-7 cells)
Cc1c(O)c(C)c2oc(Oc3ccc(O)cc3)cc(=O)c2c1O [Compound 1, 2-(p-hydroxyphenoxy)-6,8-dimethyl-5,7-dihydroxychromone]	390 µM	> 100 µg/mL	> 100 µg/mL	did not enhance SEAP activity	attenuated	6.2 fold	significantly enhanced	> 100 µg/mL					
C[C@@H]1O[C@@H](Oc2c(-c3ccc(O)c(O)c3)oc3cc(O)cc(O)c3c2=O)[C@H](O)[C@H](O)[C@H]1O [Quercitrin]		> 100 µg/mL	> 100 µg/mL	some significant anti-oestrogenic effects			neither quercitrin nor 3 alone significantly enhanced SEAP activity	> 100 µg/mL					
